Patent US20120016009A1, “Optimized Methods For Delivery Of DSRNA Targeting The PCSK9 Gene” (priority 2008, published 2012)
In the oligonucleotide strings, read from the 5' end, every base follows the letter of its sugar. An asterisk marks phosphorothioate; unmarked linkages are phosphodiester. Other units and linkages are bracketed, terminal groups are in braces. A string of capitals states the bases alone. d = 2'-deoxy (DNA); m = 2'-O-methyl; r = 2'-OH (RNA)

Tested on: PCSK9 mRNA
Assay: PCSK9 siRNA screening in HepG2 cells (lipofectamine 2000 transfection, PCSK9 mRNA by Quantigene, normalized to GAP-DH)
Format: cell-based, human
Conditions: for Mean percent remaining mRNA transcript at siRNA concentration/in cell type 30 nM/HepG2: 30 nM siRNA; for Mean percent remaining mRNA transcript at siRNA concentration/in cell type 3 nM/HepG2: 3 nM siRNA
Outline: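 HepG2 cells, grown in MEM with 10% fetal calf serum, antibiotics, non-essential amino acids and sodium pyruvate at 37° C. and 5% CO2, were plated at 2.0×10^4 cells/well in 96-well plates and transfected directly with siRNA using lipofectamine 2000. After 24 hours, cells were lysed and PCSK9 mRNA was measured by Quantigene and normalized to GAP-DH mRNA.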

| Substance | Mean percent remaining mRNA transcript at siRNA concentration/in cell type 30 nM/HepG2 [%] | Mean percent remaining mRNA transcript at siRNA concentration/in cell type 3 nM/HepG2 [%] | IC50 [nM] | Mean percent remaining mRNA transcript at siRNA concentration/in cell type 100 nM/HepG2 (100 nM siRNA) [%] |
| --- | --- | --- | --- | --- |
| AD-9580: PCSK9 siRNA (sense rCrCrUrGrCrGrCrGrUrGrCrUrCrArArCrUrGrCdT*dT; antisense rGrCrArGrUrUrGrArGrCrArCrGrCrGrCrArGrGdT*dT) | 112 |  |  |  |
| AD-9659: PCSK9 siRNA (sense rGrAmCmCrAmCmCrGrGrGrArArAmUmCrGrArGrGdT*dT; antisense rCrCrUrCrGrArUrUrUrCrCrCrGrGrUrGrGrUrCdT*dT) | 88 |  |  |  |
| AD-9752: PCSK9 siRNA (sense mUrGrArArGrAmUrAmUmUmUrAmUmUmCmUrGrGrGdT*dT; antisense rCrCmCrArGrArAmUrArArAmUrArUrCrUrUmCrAdT*dT) | 28 | 33 |  |  |
| AD-9649: PCSK9 siRNA (sense mCrArGmCmCrArGrGrAmUmUmCmCrGmCrGmCrGmCdT*dT; antisense rGrCrGrCrGrCrGrGrArArUrCrCrUrGrGrCrUrGdT*dT) | 60 |  |  |  |
| AD-9545: PCSK9 siRNA (sense rArGrUrCrArArGrGrArGrCrArUrGrGrArArUrCdT*dT; antisense rGrArUrUrCrCrArUrGrCrUrCrCrUrUrGrArCrUdT*dT) | 31 | 43 |  |  |
| AD-9711: PCSK9 siRNA (sense mCrGrGmCrArAmCmUmUmCmCrGrGrGrAmCrGrAmUdT*dT; antisense rArUrCrGrUrCrCrCrGrGrArArGrUrUrGrCrCrGdT*dT) | 122 |  |  |  |
| AD-9667: PCSK9 siRNA (sense rGrGmUrGrArGrGrGmUrGmUmCmUrAmCrGmCmCrAdT*dT; antisense rUrGrGrCrGmUrArGrAmCrArCrCrCrUmCrArCrCdT*dT) | 73 |  |  |  |
| AD-9699: PCSK9 siRNA (sense rAmUrGrGmUmCrAmCmCrGrAmCmUmUmCrGrArGrAdT*dT; antisense rUrCrUrCrGrArArGrUrCrGrGrUrGrArCmCrArUdT*dT) | 32 | 36 | 2.5 |  |
| AD-9763: PCSK9 siRNA (sense rGrArGrGrGmCrArGrGrGmUmCrAmUrGrGmUmCrAdT*dT; antisense rUrGrArCmCrArUrGrArCrCrCrUrGrCrCrCrUrCdT*dT) | 79 |  |  |  |
| AD-9592: PCSK9 siRNA (sense rCrCrUrArGrArCrArCrCrArGrCrArUrArCrArGdT*dT; antisense rCrUrGrUrArUrGrCrUrGrGrUrGrUrCrUrArGrGdT*dT) | 55 |  |  | 46 |
| AD-9725: PCSK9 siRNA (sense mUmUmCmUrGrGrAmUrGrGmCrAmUmCmUrArGmCmCdT*dT; antisense rGrGrCmUrArGrArUrGrCmCrArUrCmCrArGrArAdT*dT) | 38 |  |  |  |
| AD-9691: PCSK9 siRNA (sense mUrAmCmUmCmUrGmCmUmCmUrAmUrGmCmCrArGrGdT*dT; antisense rCrCrUrGrGmCrAmUrArGrArGmCrArGrArGmUrAdT*dT) | 49 |  |  |  |
| AD-9326: PCSK9 siRNA (sense rGrCrArCrCrCrUrCrArUrArGrGrCrCrUrGrGrAdT*dT; antisense rUrCrCrArGrGrCrCrUrArUrGrArGrGrGrUrGrCdT*dT) | 35 | 51 |  |  |
| AD-9718: PCSK9 siRNA (sense mCmCmUrArGrAmCrAmCmCrArGmCrAmUrAmCrArGdT*dT; antisense rCrUrGmUrArUrGrCrUrGrGrUrGrUrCmUrArGrGdT*dT) | 78 |  |  |  |
| AD-9714: PCSK9 siRNA (sense rGrGmUmCrAmCmCrGmCmUrGmCmCrGrGmCrArAmCdT*dT; antisense rGrUrUrGrCrCrGrGmCrArGrCrGrGrUrGrArCrCdT*dT) | 106 |  |  |  |
| AD-9549: PCSK9 siRNA (sense rGrGrGrCrCrCrArCrArArCrGrCrUrUrUrUrGrGdT*dT; antisense rCrCrArArArArGrCrGrUrUrGrUrGrGrGrCrCrCdT*dT) | 50 |  |  |  |
| AD-9694: PCSK9 siRNA (sense rGmUmUrGrArGrGmCrArGrArGrAmCmUrGrAmUmCdT*dT; antisense rGrArUmCrArGrUrCrUrCrUrGrCrCrUmCrArArCdT*dT) | 52 |  |  |  |
| AD-9597: PCSK9 siRNA (sense rArGrCrCrArArGrCrCrUrCrUrUrCrUrUrArCrUdT*dT; antisense rArGrUrArArGrArArGrArGrGrCrUrUrGrGrCrUdT*dT) | 23 | 21 | 0.04 |  |
| AD-9542: PCSK9 siRNA (sense rArUrCrGrArGrGrGrCrArGrGrGrUrCrArUrGrGdT*dT; antisense rCrCrArUrGrArCrCrCrUrGrCrCrCrUrCrGrArUdT*dT) | 160 |  |  |  |
| AD-9519: PCSK9 siRNA (sense rCrCrCrArGrCrCrArGrGrArUrUrCrCrGrCrGrCdT*dT; antisense rGrCrGrCrGrGrArArUrCrCrUrGrGrCrUrGrGrGdT*dT) | 78 |  |  |  |
| AD-9569: PCSK9 siRNA (sense rArGrCrUrCrCrUrGrCrArCrArGrUrCrCrUrCrCdT*dT; antisense rGrGrArGrGrArCrUrGrUrGrCrArGrGrArGrCrUdT*dT) | 112 |  |  |  |
| AD-9706: PCSK9 siRNA (sense mCmCmUrGmCrGmCrGmUrGmCmUmCrArAmCmUrGmCdT*dT; antisense rGmCrArGrUrUrGrArGmCrArCrGrCrGmCrArGrGdT*dT) | 86 |  |  |  |
| AD-9765: PCSK9 siRNA (sense rGmUrGmCmUrGrArGrGmCmCrAmCrGrArGrGmUmCdT*dT; antisense rGrArCrCrUrCrGrUrGrGrCrCrUmCrArGmCrArCdT*dT) | 82 | 74 |  |  |
| AD-9672: PCSK9 siRNA (sense mUrArGmCmCmUmUrGmCrGmUmUmCmCrGrArGrGrAdT*dT; antisense rUrCrCrUrCrGrGrArArCrGmCrArArGrGrCmUrAdT*dT) | 57 |  |  |  |
| AD-9576: PCSK9 siRNA (sense rGrCrArGrArGrArCrUrGrArUrCrCrArCrUrUrCdT*dT; antisense rGrArArGrUrGrGrArUrCrArGrUrCrUrCrUrGrCdT*dT) | 47 |  |  |  |
| AD-9573: PCSK9 siRNA (sense rArUrGrGrUrCrArCrCrGrArCrUrUrCrGrArGrAdT*dT; antisense rUrCrUrCrGrArArGrUrCrGrGrUrGrArCrCrArUdT*dT) | 36 | 42 | 1.6 |  |
| AD-9581: PCSK9 siRNA (sense rUrGrCrGrCrGrUrGrCrUrCrArArCrUrGrCrCrAdT*dT; antisense rUrGrGrCrArGrUrUrGrArGrCrArCrGrCrGrCrAdT*dT) | 35 |  |  |  |
